Results published in ChEMBL document CHEMBL5338711, “Designing and development of phthalimides as potent anti-tubulin hybrid molecules against malaria” (Eur J Med Chem, 2022).
Active and inactive are the calls of the source. No cut-off for these calls is given here.

What was measured:
Plasmodium falciparum [1] = assay: Antiplasmodial activity against […] incubated for 90 hrs by SYBR green I dye based analysis; type: functional, organism-based; details: 3D7, 90 h
[2] = Cytotoxicity against human U-937 cells assessed as reduction in cell viability incubated for 24 hrs by MTT assay; type: toxicity, cell-based
Plasmodium falciparum [3] = assay: Antimalarial activity against […] infected in human RBC assessed as inhibition of plasmodial growth at 1 uM by SYBR green dye based spectrofluorometric analysis relative to control; type: functional; details: 3D7, Erythrocyte
Plasmodium falciparum [4] = assay: Antimalarial activity against […] infected in human RBC assessed as inhibition of plasmodial growth at 10 uM by SYBR green dye based spectrofluorometric analysis relative to control; type: functional; details: 3D7, Erythrocyte
[5] = Cytotoxicity against human HepG2 cells; type: toxicity, cell-based
Plasmodium falciparum [6] = assay: Antimalarial activity against chloroquine-sensitive synchronized late stage trophozoite Plasmodium falciparum 3D7 infected in human RBC assessed as inhibition of plasmodial growth by giemsa staining based analysis; type: functional, organism-based; details: 3D7, Erythrocyte
Plasmodium falciparum [7] = assay: Antimalarial activity against chloroquine-resistant synchronized late stage trophozoite Plasmodium falciparum RKL-9 infected in human RBC assessed as inhibition of plasmodial growth by giemsa staining based analysis; type: functional, organism-based; details: RKL-9, Erythrocyte
Plasmodium falciparum [8] = assay: Antimalarial activity against chloroquine-resistant Plasmodium falciparum RKL-9 infected in human RBC assessed as reduction of plasmodial growth by SYBR green dye based spectrofluorometric analysis; type: functional, organism-based
Erythrocyte = assay: Hemolytic activity in human RBC assessed as hemolysis upto 5 uM incubated for 2 hrs; type: toxicity, cell-based
[9] = Therapeutic index, ratio of CC50 for human HepG2 cells to IC50 for chloroquine-sensitive synchronized late stage trophozoite Plasmodium falciparum 3D7 infected in human RBC; type: toxicity; details: read-out: TI
[10] = Cytotoxicity against […] cell upto 500 uM; type: toxicity, cell-based; details: human
[11] = Therapeutic index, ratio of cytotoxicity against […] cells to IC50 for chloroquine-sensitive synchronized late stage trophozoite Plasmodium falciparum 3D7 infected in human RBC; type: toxicity, cell-based; details: read-out: TI
Plasmodium falciparum [12] = assay: (§1) Antiplasmodial activity against synchronized ring stage Plasmodium falciparum 3D7 infected in human RBC assessed as failure of egress by measuring accumulation at late schizont stage at IC50 concentration measured after 60 hrs by giemsa staining based light microscopic analysis; type: functional, organism-based
Plasmodium falciparum [13] = assay: Induction of mitochondrial membrane depolarization in trophozoite stage Plasmodium falciparum 3D7 infected in human RBC assessed as increase in green fluorescence at IC50 concentration incubated for 3 hrs by JC-1 dye based fluorescence microscopic analysis; type: functional, organism-based
Plasmodium falciparum [14] = assay: Induction of mitochondrial membrane depolarization in trophozoite stage Plasmodium falciparum 3D7 infected in human RBC assessed as decrease in red to green fluorescence ratio at IC50 concentration incubated for 3 hrs by JC-1 dye based fluorescence microscopic analysis; type: functional, organism-based
Plasmodium falciparum [15] = assay: Induction of mitochondrial membrane depolarization in trophozoite stage Plasmodium falciparum 3D7 infected in human RBC assessed as red to green fluorescence ratio at IC50 concentration incubated for 3 hrs by JC-1 dye based spectrofluorometric analysis (reference value: 6.96+/-0.94); type: functional
Plasmodium falciparum [16] = assay: Binding affinity to recombinant N-terminal 6His tagged Plasmodium falciparum alpha-1 tubulin expressed in Escherichia coli BL21 assessed as dissociation constant at 0.78 to 75 uM by SPR analysis; details: dose 0.78-75 µM
Plasmodium falciparum [17] = assay: Binding affinity to recombinant N-terminal 6His tagged Plasmodium falciparum beta-tubulin expressed in Escherichia coli BL21 at 0.78 to 75 uM by SPR analysis; details: dose 0.78-75 µM
Plasmodium falciparum [18] = assay: Binding affinity to recombinant N-terminal 6His tagged Plasmodium falciparum alpha-1 tubulin expressed in Escherichia coli BL21 assessed as thermo-stabilization incubated at 4 to 80 degreeC for 3 mins followed by 5 mins incubation at room temperature by thermal shift assay; details: time 8.0 min
Plasmodium falciparum [19] = assay: as §1, with “reduction in transformation into pyknotic trophozoites” for “failure of egress”, “delay in ring maturation” for “accumulation at late schizont stage”; type: functional, organism-based
Plasmodium falciparum [20] = assay: Synergistic antimalarial activity against synchronized ring stage Plasmodium falciparum 3D7 infected in human RBC assessed as mean fractional inhibitory concentration at 1:4 ratio of ART to compound incubated for 72 hrs by giemsa staining based flow cytometric analysis; type: functional
Plasmodium falciparum [21] = assay: Antiplasmodial activity against Plasmodium falciparum 3D7; type: functional, organism-based
[22] = Cytotoxicity against human U-937 cells; type: toxicity, cell-based

**Q.** Which results are given for `CCC(C)C(c1nc2ccccc2n1Cc1c[nH]nn1)N1C(=O)c2ccccc2C1=O` (stereo not given)?
**A.** IC50 (Plasmodium falciparum [1]): 700 nM; CC50 at 24 h [2]: 2080 nM

**Q.** Which results are given for `CCC(C)[C@H](c1nc2ccccc2n1Cc1cn(-c2c(F)c(F)c(F)c(F)c2F)nn1)N1C(=O)c2ccccc2C1=O` (stereo not given in full)?
**A.** inhibition at 1 µM (Plasmodium falciparum [3]): -44%; inhibition at 10 µM (Plasmodium falciparum [4]): 77%

**Q.** Which inhibition at 1 µM (Plasmodium falciparum [3]) does the source give for `CC(C)[C@H](c1nc2ccccc2n1Cc1cn(-c2c(F)cccc2F)nn1)N1C(=O)c2ccccc2C1=O` here?
**A.** The inhibition at 1 µM was -26%.

**Q.** What about the inhibition at 10 µM (Plasmodium falciparum [4]) of the same compound?
**A.** The inhibition at 10 µM was 91%.

**Q.** With `CCC(C)[C@H](c1nc2ccccc2n1Cc1cn(-c2ccc(F)cc2)nn1)N1C(=O)c2ccc(C)cc2C1=O` (stereo not given in full) as the compound, how does the IC50 [5] read?
**A.** Its IC50 is > 100000 nM.

**Q.** And the inhibition at 1 µM (Plasmodium falciparum [3])?
**A.** The inhibition at 1 µM was 20%.

**Q.** What about the inhibition at 10 µM (Plasmodium falciparum [4]) of the same compound?
**A.** Its inhibition at 10 µM is 64%.

**Q.** And the IC50 (Plasmodium falciparum [6])?
**A.** The IC50 was 2200 nM.

**Q.** And the IC50 (Plasmodium falciparum [7])?
**A.** The IC50 was 3430 nM.

**Q.** And the Activity (Plasmodium falciparum [8])?
**A.** The Activity was “Dose dependent effect”.

**Q.** What about the Activity (Erythrocyte) of the same compound?
**A.** Its Activity is “Non-Toxic”.

**Q.** What about the selectivity ratio [9] of the same compound?
**A.** The selectivity ratio was 46.

**Q.** What about the Activity [10] of the same compound?
**A.** Its Activity is “Non-Toxic”.

**Q.** And the selectivity ratio [11]?
**A.** Its selectivity ratio is > 800.

**Q.** And the Activity (Plasmodium falciparum [12])?
**A.** The Activity was “Active”.

**Q.** And the Activity (Plasmodium falciparum [13])?
**A.** The Activity was “Active”.

**Q.** What about the Activity (Plasmodium falciparum [14]) of the same compound?
**A.** The Activity was “Active”.

**Q.** And the Activity (Plasmodium falciparum [15])?
**A.** Its Activity is 5.56.

**Q.** And the Activity (Plasmodium falciparum [16])?
**A.** Its Activity is “inactive”.

**Q.** And the Activity (Plasmodium falciparum [17])?
**A.** The Activity was “inactive”.

**Q.** And the Activity (Plasmodium falciparum [18])?
**A.** Its Activity is “Active”.

**Q.** For `CCC(C)[C@H](c1nc2ccccc2n1Cc1cn(-c2ccc(F)cc2F)nn1)N1C(=O)c2ccc(C)cc2C1=O` (stereo not given in full), which inhibition at 1 µM (Plasmodium falciparum [3]) is on record?
**A.** The inhibition at 1 µM was 21%.

**Q.** And the inhibition at 10 µM (Plasmodium falciparum [4])?
**A.** The inhibition at 10 µM was 94%.

**Q.** With `CC(C)C[C@H](c1nc2ccccc2n1Cc1cn(-c2ccc(C(F)(F)F)cc2)nn1)N1C(=O)c2ccccc2C1=O` as the compound, how does the inhibition at 1 µM (Plasmodium falciparum [3]) read?
**A.** The inhibition at 1 µM was -53%.

**Q.** What about the inhibition at 10 µM (Plasmodium falciparum [4]) of the same compound?
**A.** The inhibition at 10 µM was 88%.

**Q.** With `CCC(C)[C@H](c1nc2ccccc2n1Cc1cn(Cc2ccccc2)nn1)N1C(=O)c2ccccc2C1=O` (stereo not given in full) as the compound, how does the IC50 [5] read?
**A.** Its IC50 is > 100000 nM.

**Q.** And the inhibition at 1 µM (Plasmodium falciparum [3])?
**A.** The inhibition at 1 µM was 35%.

**Q.** What about the inhibition at 10 µM (Plasmodium falciparum [4]) of the same compound?
**A.** Its inhibition at 10 µM is 66%.

**Q.** What about the IC50 (Plasmodium falciparum [6]) of the same compound?
**A.** The IC50 was 810 nM.

**Q.** What about the IC50 (Plasmodium falciparum [7]) of the same compound?
**A.** The IC50 was 1880 nM.

**Q.** And the Activity (Plasmodium falciparum [8])?
**A.** Its Activity is “Dose dependent effect”.

**Q.** And the Activity (Erythrocyte)?
**A.** Its Activity is “Non-Toxic”.

**Q.** What about the selectivity ratio [9] of the same compound?
**A.** Its selectivity ratio is 123.

**Q.** What about the Activity [10] of the same compound?
**A.** The Activity was “Non-Toxic”.

**Q.** And the Activity (Plasmodium falciparum [19])?
**A.** Its Activity is “Active”.

**Q.** And the Activity (Plasmodium falciparum [13])?
**A.** Its Activity is “Active”.

**Q.** And the Activity (Plasmodium falciparum [14])?
**A.** The Activity was “Active”.

**Q.** What about the FIC (Plasmodium falciparum [20]) of the same compound?
**A.** Its FIC is 0.67.

**Q.** For `CCC(C)[C@H](c1nc2ccccc2n1Cc1cn(-c2ccc(F)cc2)nn1)N1C(=O)c2ccccc2C1=O` (stereo not given in full), which IC50 (Plasmodium falciparum [21]) is on record?
**A.** Its IC50 is 900 nM.

**Q.** And the CC50 [22]?
**A.** Its CC50 is 28800 nM.

**Q.** For `CCC(C)[C@H](c1nc2ccccc2n1Cc1cn(-c2ccccc2F)nn1)N1C(=O)c2ccccc2C1=O` (stereo not given in full), which inhibition at 1 µM (Plasmodium falciparum [3]) is on record?
**A.** Its inhibition at 1 µM is 8%.

**Q.** And the inhibition at 10 µM (Plasmodium falciparum [4])?
**A.** The inhibition at 10 µM was 87%.

**Q.** For `CCC(C)C(c1nc2ccccc2n1Cc1cn(-c2ccc(F)cc2)nn1)N1C(=O)c2ccccc2C1=O` (stereo not given), which IC50 (Plasmodium falciparum [1]) is on record?
**A.** The IC50 was 900 nM.

**Q.** What about the CC50 at 24 h [2] of the same compound?
**A.** Its CC50 at 24 h is 28800 nM.

**Q.** For `CCC(C)[C@H](c1nc2ccccc2n1Cc1cn(-c2c(F)c(F)c(F)c(F)c2F)nn1)N1C(=O)c2ccc(C)cc2C1=O` (stereo not given in full), which inhibition at 1 µM (Plasmodium falciparum [3]) is on record?
**A.** The inhibition at 1 µM was -4%.

**Q.** What about the inhibition at 10 µM (Plasmodium falciparum [4]) of the same compound?
**A.** The inhibition at 10 µM was 95%.

**Q.** Which IC50 (Plasmodium falciparum [1]) does the source give for `CC(C)CC(c1nc2ccccc2n1Cc1cn(-c2ccccc2)nn1)N1C(=O)c2ccccc2C1=O` (stereo not given) here?
**A.** Its IC50 is 900 nM.

**Q.** What about the CC50 at 24 h [2] of the same compound?
**A.** Its CC50 at 24 h is 910 nM.
